Data on 31 molecules can be found in patent US20030032153A1, “Novel (R)-2,3-butanediol dehydrogenase, methods for producing same, and methods for producing optically active alcohol using the dehydrogenase” (priority 2001, published 2003).

Series [1] has as its system (R)-2,3-butanediol dehydrogenase. Nature of the series: Substrate specificity, reduction reaction of the enzyme obtained in Example 1 with ketones. Format: biochemical, Kluyveromyces lactis. As to conditions: coenzyme NADH; reduction of 4-hydroxy-2-butanone taken as 100. Here is the method: (§1) A reaction solution containing 50 mM potassium phosphate buffer (pH 6.5), 0.2 mM NADH, 20 mM 4-hydroxy-2-butanone, and the enzyme is reacted at 30° C., and the decrease in absorbance at 340 nm due to the decrease in NADH is measured. 1 U is defined as the amount of enzyme that catalyzes a decrease of 1 μmol NADH in one minute.
The enzyme obtained in Example 1 was reacted with various alcohols and ketones, and the activity of oxidation and reduction is shown in Table 2. Herein, the relative activity is indicated taking the oxidation of (R)-1,3-butanediol and reduction of 4-hydroxy-2-butanone as 100.

The target of series [2] is T1, Glycerol dehydrogenase produced from Escherichia coli W-1485 (Escherichia coli, UniProt P0A9S5).
T1 construct: host or cells: Escherichia coli W-1485
T1 sequence (P0A9S5 1-367): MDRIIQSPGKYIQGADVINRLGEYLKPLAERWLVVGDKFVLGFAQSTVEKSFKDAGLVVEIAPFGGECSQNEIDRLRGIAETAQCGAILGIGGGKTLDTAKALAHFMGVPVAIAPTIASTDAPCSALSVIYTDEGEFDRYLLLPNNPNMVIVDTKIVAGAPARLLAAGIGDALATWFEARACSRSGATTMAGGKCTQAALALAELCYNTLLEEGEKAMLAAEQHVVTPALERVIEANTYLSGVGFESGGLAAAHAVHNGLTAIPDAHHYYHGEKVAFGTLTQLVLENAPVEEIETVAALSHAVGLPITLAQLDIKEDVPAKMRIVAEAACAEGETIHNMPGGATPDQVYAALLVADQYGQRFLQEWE
As to conditions: J. Biol. Chem. 259: 2124-2129, 1984; NAD+ reduction; cited from earlier work.

For series [3], the system named is (R)-2,3-butanediol dehydrogenase. Nature of the series: Stereoselectivity, oxidation of alcohol isomers by the enzyme obtained in Example 1. As to conditions: coenzyme NAD+; higher oxidation activity between the two isomers taken as 100. The class given is biochemical, Kluyveromyces lactis. Here is the method:
(§2) A reaction solution containing 50 mM potassium phosphate buffer (pH 6.5), 2.5 mM NAD^+, 20 mM (R)-1,3-butanediol, and the enzyme is reacted at 30° C., and the increase in absorbance at 340 nm due to the increase of NADH is measured. 1 U is defined as the amount of enzyme that catalyzes an increase of 1 μmol NADH in one minute. Further, the quantity of the protein is determined by the pigment bonding method using protein assay kit (Biorad).
The enzyme obtained in Example 1 was reacted with 1,3-butanediol, 1,2-propanediol, 2,3-butanediol, 2-butanol, and 3-chloro-1,2-propanediol, and the activities are shown in Table 3. Herein, the relative activity is indicated, taking the higher oxidation activity between the two isomers as 100. The stereoselectivity for 2,3-butanediol, and 1,2-propandiol of the (R)-2,3-butanediol dehydrogenase according to the present invention was extremely high.

The test system is the same in series [4]. Nature of the series: Substrate specificity, oxidation reaction of the enzyme obtained in Example 1 with alcohols. The class given is biochemical, Kluyveromyces lactis. As to conditions: for Relative Activity, Oxidation Reaction: coenzyme NAD+, oxidation of (R)-1,3-butanediol taken as 100. As for the experimental part:
as §2
Herein, the relative activity is indicated taking the oxidation of (R)-1,3-butanediol and reduction of 4-hydroxy-2-butanone as 100.

The test system is the same in series [5]. Nature of the series: Substrate specificity, reduction reaction of the enzyme obtained in Example 1 with ketones. The class given is biochemical, Kluyveromyces lactis.
Series [6] can be described thus: Reduction activity on 4-hydroxy-2-butanone of the purified enzyme. Format: biochemical, Kluyveromyces lactis. As to conditions: 4-hydroxy-2-butanone reduction activity. Here is the method: as §1
Kluyveromyces lactis strain IFO 1267 was cultured in 1.2 liters of YM medium (glucose 20 g/L, yeast extract 3 g/L, malt extract 3 g/L, peptone 5 g/L, pH 6.0) and the cell bodies were prepared by centrifugation. The resulting wet cell bodies were suspended in 50 mM potassium phosphate buffer (pH 8.0), containing 0.02% 2-mercaptoethanol and 2 mM phenylmethane sulfonylfluoride (PMSF), and after homogenizing with Bead Beater (Biospec), the residue of the cell bodies were removed by centrifugation to obtain a cell-free extract. Protamine sulfate was then added to the cell-free extract followed by centrifugation to obtain enucleated supernatant. […]
The (R)-1,3-butanediol oxidation activity and 4-hydroxy-2-butanone reduction activity of the enzyme obtained in Example 1 were measured by changing only the temperature of the standard reaction conditions. […]

Series [7] is described as follows: Oxidation activity on (R)-1,3-butanediol of the purified enzyme. The class given is biochemical, Kluyveromyces lactis. As to conditions: (R)-1,3-butanediol oxidation activity. Here is the method:
as §2
The (R)-1,3-butanediol oxidation activity and 4-hydroxy-2-butanone reduction activity of the enzyme obtained in Example 1 was investigated by changing the pH using potassium phosphate buffer solution, sodium acetate buffer solution, and Britton-Robinson wide-range buffer solution. The oxidation activity and the reduction activity are depicted in FIGS. 2 and 3, respectively, wherein the relative activity are indicated taking the maximum activity as 100. The optimum pH was 6.0 for both reactions, oxidation and reduction.
The (R)-1,3-butanediol oxidation activity and 4-hydroxy-2-butanone reduction activity of the enzyme obtained in Example 1 were measured by changing only the temperature of the standard reaction conditions. […] The optimum reaction temperature was 37° C. for both reactions, oxidation and reduction.

Consider `CCC(=O)CO` [1-Hydroxy-2-butanone], for which the “Relative Activity, Reduction Reaction” value in series [1] amounted to 12100. In the case of `CC(=O)C(C)=O` [2,3-Butanedione], the “Relative Activity, Reduction Reaction” value in series [1] is listed as 46400. The same measure, in the same setting: to `CCC(=O)C(C)=O` [2,3-Pentanedione] belongs 51400.

With `CC(=O)CC(C)=O` [2,4-Pentanedione], the “Relative Activity, Reduction Reaction” value in series [1] amounted to 0.

Turning to `CCC(C)=O` [2-Butanone], in series [1], the “Relative Activity, Reduction Reaction” value was determined as 31. In the case of `O=C(CO)c1ccccc1` [2-Hydroxy-acetophenone], the “Relative Activity, Reduction Reaction” value in series [1] is 360. For `CCC(=O)CC` [3-Pentanone], the “Relative Activity, Reduction Reaction” value in series [1] came to 100. Consider `CCOC(=O)CC(=O)CCl` [4-Chloro-ethyl acetoacetate], for which the “Relative Activity, Reduction Reaction” value in series [1] is 0.

As to `CC(=O)CCO` [4-Hydroxy-2-butanone], in series [1], the “Relative Activity, Reduction Reaction” value is on record as 100. For `C[C@@H](O)[C@@H](C)O` [(2R, 3R)-butanediol, (2R,3R)-2,3-butanediol], the Vmax in series [2] was 28.0 U/mg protein. Besides, the “Relative Activity (stereoselectivity)” value in series [3] is given as 100. The “Relative Activity, Oxidation Reaction” value in series [4] is listed as 15600.

Take `C[C@H](O)[C@H](C)O` [(2S,3S)-2,3-butanediol]: the “Relative Activity (stereoselectivity)” value in series [3] is given as 1. `C[C@@H](O)CO` [(R)-1,2-propanediol]: the “Relative Activity (stereoselectivity)” value in series [3] is reported as 100. Further, the “Relative Activity, Oxidation Reaction” value in series [4] amounted to 13800. As to `C[C@@H](O)CCO` [(R)-1,3-butanediol], the “Relative Activity (stereoselectivity)” value in series [3] is 100. The “Relative Activity, Oxidation Reaction” value in series [4] is 100. Regarding `OC[C@@H](O)CCl` [(R)-3-chloro-1,2-propanediol], the “Relative Activity (stereoselectivity)” value in series [3] is on record as 29.

For the molecule `C[C@H](O)CO` [(S)-1,2-propanediol], the “Relative Activity (stereoselectivity)” value in series [3] stood at 1. Consider `C[C@H](O)CCO` [(S)-1,3-butanediol], for which the “Relative Activity (stereoselectivity)” value in series [3] stood at 35. Take `OC[C@H](O)CCl` [(S)-3-chloro-1,2-propanediol]: the “Relative Activity (stereoselectivity)” value in series [3] was found to be 100. In addition, the “Relative Activity, Oxidation Reaction” value in series [4] was determined as 128. Turning to `CC(=O)C(C)O` (stereo not drawn) [Acetoin], in series [1], the “Relative Activity, Reduction Reaction” value amounted to 101000. On to `CC(=O)CO` [Acetol], for which the “Relative Activity, Reduction Reaction” value in series [1] came out at 53600. For the molecule `CC(C)=O` [Acetone], the “Relative Activity, Reduction Reaction” value in series [1] came out at 63. `CC(=O)c1ccccc1` [Acetophenone]: the “Relative Activity, Reduction Reaction” value in series [1] turned out to be 36.

Consider `CCO` [Ethanol], for which the “Relative Activity, Oxidation Reaction” value in series [4] is reported as 0.

In the case of `CCOC(=O)CC(C)=O` [Ethyl acetoacetate], the “Relative Activity, Reduction Reaction” value in series [1] was 0.

Turning to `OCC(O)CO` [Glycerin], the “Relative Activity, Oxidation Reaction” value in series [4] is listed as 66. Same read-out and setting: to `CC(C)O` [Isopropyl alcohol] belongs 48.

On to `NC(=O)C1=CN([C@@H]2O[C@H](COP(=O)(O)OP(=O)(O)OC[C@H]3O[C@@H](n4cnc5c(N)ncnc54)[C@H](OP(=O)(O)O)[C@@H]3O)[C@@H](O)[C@H]2O)C=CC1` [NADPH, reduced β-nicotinamide adenine dinucleotide phosphate], for which the “use as a coenzyme in the reduction reaction” value in series [5] is “substantially unable to use”. With `NC(=O)c1ccc[n+]([C@@H]2O[C@H](COP(=O)([O-])OP(=O)(O)OC[C@H]3O[C@@H](n4cnc5c(N)ncnc54)[C@H](OP(=O)(O)O)[C@@H]3O)[C@@H](O)[C@H]2O)c1` [NADP^+, β-nicotinamide adenine dinucleotide phosphate], the “use as a coenzyme in the oxidation reaction” value in series [4] was “substantially unable to use”.

On to (R)-2-butanol, for which the “Relative Activity (stereoselectivity)” value in series [3] came to 100. For the same molecule, the “Relative Activity, Oxidation Reaction” value in series [4] was 28. Consider (S)-2-butanol, for which the “Relative Activity (stereoselectivity)” value in series [3] came to 75.

On to n-Butanol, for which the “Relative Activity, Oxidation Reaction” value in series [4] stood at 0.

B1: enzyme obtained in Example 1: NAD+-dependent (R)-2,3-butanediol dehydrogenase purified from Kluyveromyces lactis strain IFO 1267 (SEQ ID NO:2) (protein, listed as Kluyveromyces lactis)
chain: MRALAYFGKQDIRYTKDLEEPVIETDDGIEIEVSWCGICGSDLHEYLDGPIFFPEDGKVHDVSGLGLPQAMGHEMSGIVSKVGPKVTNIKAGDHVVVEATGTCLDHYTWPNAAHAKDAECAACQRGFYNCCAHLGFMGLGVHSGGFAEKVVVSEKHVVKIPNTLPLDVAALVEPISVSWHAVRISKLQKGQSALVLGAGPIGLATILALQGHGASKIVVSEPAEIRRNQAAKLGVETFDPSEHKEDAVNILKKLAPGGEGFDFAYDCSGVKPTFDTGVHATTFRGMYVNIAIWGHKPIDFKPMDVTLQEKFVTGSMCYTIKDFEDVVQALGNGSIAIDKARHLITGRQKIEDGFTKGFDELMNHKEKNIKILLTPNNHGELDATN
Take B1: the “optimum pH, reduction” value in series [6] was 6.0. Besides, the specific activity entry in series [6] (after hydroxyapatite column) was “about 1.5 U/mg”. For the same molecule, in series [7], the “optimum pH, oxidation” value came to 6.0.
